Legend:
[1] = in vivo
Description: In an animal experiment, liposomes were used which consisted of 40 mol % cholesterol, 10 mol % phosphatidylglycerol and 50% dipalmitoyl lecithin.
Liposomes of the same composition were prepared, in which the phosphatidylglycerol was replaced by a phosphatidylglycerol G2 of the invention. […] This linear relation was observed irrespective of the size of the liposomes. The same linear reduction in serum liposome concentration was found with 50 nm liposomes and with 150 nm liposomes. The linear reduction in blood liposome concentration was also observed for different starting concentrations.

[2] = Behaviour of PP-G-PGn lipids in water (additional properties); format: physicochemical; details: for behaviour when heated in water: heated above 40° C. in water; for stability of the lamellar phases: low temperatures; for time until transition from the isotropic to the anisotropic phase is recognizable: room temperature; for behaviour when the temperature falls: temperature below 40° C.
Description: As the number of glycerol molecules increases, the number of free hydroxyl groups and thus also the polarity increases. […] Whereas the transition from the isotropic to the anisotropic phase at room temperature is recognizable after a few minutes with PP-G-PG2, it takes several hours for PP-G-PG3. The differences in polarity are also evident from the different retention factors (Rf) in the thin-layer chromatogram on silica gel.

| Substance | half-life in serum [1] [h] | persistence characteristic (decrease of liposomes in serum with time) [1] | behaviour when heated in water [2] | stability of the lamellar phases [2] | time until transition from the isotropic to the anisotropic phase is recognizable [2] | behaviour when the temperature falls [2] | solution formed in water ([2]; proportion of 5% in water) |
| --- | --- | --- | --- | --- | --- | --- | --- |
| phosphatidylglycerol | 4 | a rapid decrease to start with, followed by a slower decrease |  |  |  |  |  |
| 1.2-dipalmitoyl-sn-glycero-3-phospho-G1-G2-G3 [PP-G-PG3] |  |  | dissolve when heated above 40 °C in water and form superstructures | remain stable even at low temperatures (down to 4° C.) | several hours | lamellar structures with differently pronounced hystereses are formed |  |
| 1.2-dipalmitoyl-sn-glycero-3-phospho-G1-G2 [PP-G-PG2] |  |  | dissolve when heated above 40 °C in water and form superstructures | remain stable even at low temperatures (down to 4° C.) | a few minutes | lamellar structures with differently pronounced hystereses are formed |  |
| 1.2-dipalmitoyl-sn-glycero-3-phospho-G1-G2-G3-G4 [PP-G-PG4] |  |  |  |  |  |  | clear isotropic solution |
